The values that follow are results of earlier work, collected in patent US11951100B2, “Formulations of RBP4 inhibitors and methods of use” (Belite Bio, LLC, priority 2019, dated 2024).

SMILES strings stand for the structures.

The conditions of the data set: sub-population with significant RBP4 lowering; cited from earlier work.

Regarding `CC1=C(/C=C/C(C)=C/C=C/C(C)=C/C(=O)Nc2ccc(O)cc2)C(C)(C)CCC1` [fenretinide], the lesion growth result is on record as “slower lesion growth”.
